# In patent US6287840A (Axys Pharmaceuticals, Inc., priority 1999, dated 2001):
# Key:
# cruzain, from T. cruzi = cruzain, from T. cruzi (Trypanosoma cruzi, UniProt P25779); assay: Inhibition of cruzain, as for cathepsin L; format: biochemical; conditions: values marked *
# Method in brief: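 Run as for cathepsin L with 1 nM cruzain in 50 mM phosphate pH […], 2.5 mM DTT, 2.5 mM EDTA, 5 μM Z-Phe-Arg-AMC, at 25 °C, inhibitors 30-0.001 μM; fluorescence (ex 380/em 460 nm) followed continuously. kobs fitted from progress curves and kobs/[I] reported; selected compounds gave kirr, KI, kirr/KI, with KI corrected by (1+[S]/Km).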
# [1] = Stability of selected inhibitors toward glutathione (Ellmans reagent); format: physicochemical; conditions: inhibitor 5 mM, GSH 0.3 mM, pH=6.2, 20° C.
# Description: The inhibitors (5 mM) were incubated with glutathione (GSH) (0.3 mM) in phosphate buffer (50 mM) at pH=6.2 containing 15% DMF at 20° C. Periodically, 50 μL samples were added to 1 mL of buffer and treated with 10 μL of 30 mM Ellmans reagent and the absorbance measured at 412 nm.
# calpain = assay: Inhibition (inactivation) of calpain, Suc-Leu-Tyr-AMC; format: biochemical; conditions: values marked * (or %); pH 7.5, 5 mM CaCl2, 25° C.
# Description: The inhibitors were tested against calpain at 1 or 2% as for the other enzymes. The reaction conditions were 50 mM Tris, pH 7.5, 5 mM CaCl2, 2.5 mM DTT, assayed at 25° C. The substrate was 100 μM Suc-Leu-Tyr-AMC.
# [2] = target: T1, Cathepsin B from human placenta (Homo sapiens, UniProt P07858); assay: Inhibition of cathepsin B, Z-Arg-Arg-AMC fluorescence progress curves; format: biochemical; conditions: 25° C., pH 6.2
# T1 construct: Cathepsin B from human placenta, obtained from Sigma; purchased Sigma; host or cells: human placenta (tissue)
# Method in brief: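 Human placental enzyme (~10 nM) in 50 mM phosphate pH 6.2 with 2.5 mM DTT and 2.5 mM EDTA, 50 μM Z-Arg-Arg-AMC, inhibitors 30-0.001 μM, 25° C. AMC fluorescence (ex 380/em 460 nm) progress curves fitted for kobs; kobs/[I] reported, with kirr, KI and kirr/KI substrate-corrected for selected compounds.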
# Cloned cathepsin S = target: T2, Cloned cathepsin S (Homo sapiens, UniProt P25774); assay: Inhibition of cathepsin S, Z-Val-Val-Arg-AMC fluorescence progress curves; format: biochemical; conditions: values marked *; 25° C., pH 6.5
# T2 construct: made in house
# Method in brief: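 Fluorescence (380 nm excitation, 460 nm emission) was followed after adding sub-nM enzyme to pH 6.5 phosphate buffer with DTT, EDTA, Triton, 10 μM Z-VVR-AMC and 30-0.001 μM inhibitor at 25 °C. Fitted kobs values gave apparent kobs/[I]; for some, double-reciprocal plots gave kirr, KI and kirr/KI, KI corrected by 1+[S]/Km.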
# P. carinii = assay: Growth of P. carinii in vitro; format: cell-based; conditions: 10 mM each
# Description: Mu-Leu-HphVSPh and Mu-Phe-LysVSPh.HBr were evaluated for their effects on the growth of P. carinii in vitro, according to the procedure of M. S. Bartlett et al. [Antimicrotubule Benzimidazoles Inhibit In Vitro Growth of P. carinii, M. S. Bartlett, T. D. Edlind, M. M. Durkin, M. M. Shaw, S. F. Queener, and J. W. Smith, (1992) Antimicrobial Agents and Chemotherapy, 36, 779-782; Antimicrobial susceptibility of P. carinii in culture, M. S. Bartlett, R. Eichholtz, and J. W. Smith (1985) Diagn. Microbiol. Infect. Dis.; 3, 381-387. Mu-Leu-HphVSPh and Mu-Phe-LysVSPh.HBr (10 mM each) inhibited the growth of P. carinii 64% and 50% respectively.
# [3] = system: human malarial parasite Plasmodium falciparum; assay: In vitro protease activity of malarial parasite, substrate Z-Phe-Arg-AMC; format: biochemical; conditions: cells printed in nM; read-out: P. falciparum IC50 (human)
# Text: (§1) The following table summarizes the comparative IC50 values for selected cysteine protease inhibitors against the human malarial parasite Plasmodium falciparum and the mouse malarial parasite Plasmodium vinckei. The substrate used to measure in vitro protease activity was Z-Phe-Arg-AMC.
# [4] = system: mouse malarial parasite Plasmodium vinckei; assay: as above; format: biochemical; conditions: cells printed in nM; read-out: P. vinckei IC50 (murine)
# Text: as §1
# [5] = target: T3, Cathepsin L from rat liver (Rattus norvegicus, UniProt P07154); assay: Inhibition of cathepsin L, Z-Phe-Arg-AMC fluorescence progress curves; format: biochemical
# T3 construct: Cathepsin L from rat liver; from tissue; host or cells: rat liver
# Method in brief: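 Progress curves of AMC release (380/460 nm) over at least 3 inactivation half-times were fitted to kobs, reported as kobs/[I] or, via 1/[I] vs 1/kobs, kirr, KI (substrate-corrected) and kirr/KI.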
# T. cruzi = T. cruzi infected irradiated J774 cells; format: cell-based; design: dose or concentration left out as unconfirmed; conditions: thereafter without inhibitor; compounds listed in decreasing order of effectiveness
# Description: Irradiated J774 cells were infected with T. cruzi and simultaneously treated with […] of peptidyl vinyl derivatives for 5 days; thereafter without inhibitor. The following compounds were effective in decreasing order: Mu-Phe-ArgVSPh, Boc-Tyr(I2)-HphVSPh, Mu-Phe-VaIVSPh, Boc-Tic-HphVSPh, Mu-Phe-Ser(OBzl)VSPh, Mu-Leu-HphVSPh, Mu-Tyr(I2)-HphVSPh, Mu-Phe-LysVSPh, Mu-Tic-HphVSPh.
# T3 sequence (P07154 114-288 limits assumed): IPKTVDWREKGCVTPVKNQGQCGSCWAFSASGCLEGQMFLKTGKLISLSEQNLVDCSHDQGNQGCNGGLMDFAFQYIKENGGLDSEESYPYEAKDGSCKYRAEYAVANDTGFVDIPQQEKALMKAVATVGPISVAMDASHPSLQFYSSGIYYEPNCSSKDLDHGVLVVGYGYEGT
# T3 sequence (P07154 291-334 limits assumed): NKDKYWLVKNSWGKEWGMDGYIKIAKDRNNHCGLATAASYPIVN
# Chain of cruzain, from T. cruzi (P25779 123-337 limits assumed): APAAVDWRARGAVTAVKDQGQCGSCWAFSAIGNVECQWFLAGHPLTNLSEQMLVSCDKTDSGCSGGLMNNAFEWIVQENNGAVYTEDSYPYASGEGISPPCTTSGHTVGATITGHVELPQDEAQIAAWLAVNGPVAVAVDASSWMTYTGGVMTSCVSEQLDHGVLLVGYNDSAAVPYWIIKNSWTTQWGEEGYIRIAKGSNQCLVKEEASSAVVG
# T2 sequence (P25774 115-331): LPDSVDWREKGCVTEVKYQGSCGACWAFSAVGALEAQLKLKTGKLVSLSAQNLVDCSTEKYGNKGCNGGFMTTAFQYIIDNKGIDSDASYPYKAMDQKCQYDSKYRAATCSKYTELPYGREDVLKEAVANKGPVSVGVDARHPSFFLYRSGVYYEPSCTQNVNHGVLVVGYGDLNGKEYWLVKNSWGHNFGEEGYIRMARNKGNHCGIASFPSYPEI
smiles,measurement,setting,value
"Br.NCCCC[C@@H](/C=C/S(=O)(=O)c1ccccc1)NC(=O)[C@H](Cc1ccccc1)NC(=O)N1CCOCC1 [Mu-Phe-LysVSPh.HBr, (G)-(E)-7-amino-3-(4-morpholinecarbonylphenylalanyl)amino-1-phenylsulfonyl-1-heptene hydrobromide]",kobs /[I]* (approximate second-order inactivation constant),"cruzain, from T. cruzi","149,000 M^-1 sec^-1"
same,second order rate constant for the loss of GSH,[1],0.00055 M⁻¹ s⁻¹
same,kobs /[I]*,calpain,< 50 M⁻¹ s⁻¹
same,kobs /[I]* (approximate second-order inactivation constant),[2]; values marked *,"11,300 M^-1 sec^-1"
same,k/KI (kirr/KI),[2]; values without asterisk,"11,700 M^-1 sec^-1"
same,kobs /[I]* (approximate second-order inactivation constant),Cloned cathepsin S,"10,700,000 M^-1 sec^-1"
same,inhibition of the growth of P. carinii,P. carinii,50%
same,IC50,[3],100 nM
same,IC50,[4],60 nM
same,kirr,[5],0.16 s⁻¹
same,Ki,[5]; corrected for substrate,1400 nM
same,kobs /[I]* (approximate second-order inactivation constant),"[5]; values marked *, 25° C., pH 6.2","220,000 M^-1 sec^-1"
same,k/KI (kirr/KI),"[5]; values without asterisk, 25° C., pH 6.2","110,000 M^-1 sec^-1"
same,effectiveness against T. cruzi in J774 cells,T. cruzi,effective
